These results are taken from ChEMBL document CHEMBL1201862, “PubChem BioAssay data set” (2004).

In series [1] the target is T1, Heat shock factor protein 1 (Mus musculus, UniProt P38532).
T1 sequence (P38532 whole entry): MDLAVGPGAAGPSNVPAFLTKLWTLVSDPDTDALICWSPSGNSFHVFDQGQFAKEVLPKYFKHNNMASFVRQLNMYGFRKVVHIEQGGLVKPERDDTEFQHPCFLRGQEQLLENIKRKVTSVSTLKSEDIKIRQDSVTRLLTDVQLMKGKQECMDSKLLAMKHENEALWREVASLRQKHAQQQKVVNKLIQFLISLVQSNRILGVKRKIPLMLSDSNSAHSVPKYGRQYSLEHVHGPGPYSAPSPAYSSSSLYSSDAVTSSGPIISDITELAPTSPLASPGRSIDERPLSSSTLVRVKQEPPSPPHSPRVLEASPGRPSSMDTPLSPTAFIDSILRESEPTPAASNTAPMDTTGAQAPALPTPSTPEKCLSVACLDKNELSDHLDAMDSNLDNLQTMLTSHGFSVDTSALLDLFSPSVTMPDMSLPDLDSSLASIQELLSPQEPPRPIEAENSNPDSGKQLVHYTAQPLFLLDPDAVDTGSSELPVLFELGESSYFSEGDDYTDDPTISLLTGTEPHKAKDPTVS
The experiment in a line: HSF1 potentiators in luciferase reporter cells, confirmation, cell-based, NIH3T3, luminescence, dose retest (AID 435004).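 Note: stress induced by proteasome inhibitor MG132 added 30 min after compound; luciferase reporter driven by HSF1 response element in NIH3T3 cells; actives raise luminescence as potentiators of the MG132 stress response.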 In kind it is functional.

A further series concerns H9c2. The experiment in a line: cells. As to conditions: Rattus norvegicus, H9c2, Myocardium. It counts as functional, cell-based.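 Note: confirmatory concentration-response retest of ultra-high-throughput screening hits for modulation of myocardial damage; cell death induced by hydrogen peroxide oxidative stress; compound pretreatment for 60 min then peroxide exposure for 2 h; potency is for protecting the cells against peroxide damage rather than for killing them.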
The target of a further series is Cytochrome P450 3A4 (Homo sapiens, UniProt P08684).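 Note: CYP3A4 tested as one member of a cytochrome P450 panel screen.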
A further series has as its system H4. The experiment in a line: Luminescence Cell-Based Dose Response HTS to Identify Activators of 5'UTR Stem-Loop Driven Prion Protein mRNA Translation in H4 Neuroglioblastoma Cells. [Related pubchem assays: 1829 (Project Summary), 1814 (Primary HTS)]. It counts as functional. The settings on record: Homo sapiens.
Series [2] is described as follows: Luminescence Cell-Based Dose Response HTS to Identify Activators of Luciferase Translation or Activity in H4 […] Cells. [Related pubchem assays: 1829 (Project Summary), 1814 (Primary HTS)]. It counts as functional.
Series [3] is described as follows: Luminescence Cell-Based Dose Confirmation HTS to Identify Activators of 5'UTR Stem-Loop Driven Alpha-Synuclein mRNA Translation in H4 Neuroglioblastoma Cells. [Related pubchem assays: 1829 (Project Summary), 1814 (Primary HTS)]. It counts as functional.
A further series has as its target Cytochrome P450 2C19 (Homo sapiens, UniProt P33261). In words: Cytochrome panel assay with activity outcomes. Panel member name: p450-cyp2c19 Compounds with AC50 equal or less than 10 uM are considered active. It counts as functional.
For a further series, the target named is T2, Cytochrome P450 1A2 (Homo sapiens, UniProt P05177).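 Note: PubChem cytochrome P450 panel assay, CYP1A2 panel member.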
T2 sequence (P05177 whole entry): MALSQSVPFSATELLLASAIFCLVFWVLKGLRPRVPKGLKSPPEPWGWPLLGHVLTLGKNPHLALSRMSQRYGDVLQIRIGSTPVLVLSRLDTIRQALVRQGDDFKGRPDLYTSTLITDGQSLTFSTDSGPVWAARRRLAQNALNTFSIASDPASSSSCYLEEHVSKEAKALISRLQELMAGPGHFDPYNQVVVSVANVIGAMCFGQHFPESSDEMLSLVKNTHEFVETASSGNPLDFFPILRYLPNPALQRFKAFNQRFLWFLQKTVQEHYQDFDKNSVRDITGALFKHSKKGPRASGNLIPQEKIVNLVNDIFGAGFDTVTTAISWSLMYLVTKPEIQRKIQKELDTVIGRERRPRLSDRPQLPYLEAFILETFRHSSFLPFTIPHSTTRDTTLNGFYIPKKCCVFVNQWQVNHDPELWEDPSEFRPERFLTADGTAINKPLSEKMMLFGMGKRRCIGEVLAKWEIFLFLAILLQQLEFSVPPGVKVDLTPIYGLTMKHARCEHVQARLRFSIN

Active and inactive are the calls of the source. A value given as a limit tells only on which side of the number the result lay.

Sequence of Cytochrome P450 2C19 (P33261 whole entry): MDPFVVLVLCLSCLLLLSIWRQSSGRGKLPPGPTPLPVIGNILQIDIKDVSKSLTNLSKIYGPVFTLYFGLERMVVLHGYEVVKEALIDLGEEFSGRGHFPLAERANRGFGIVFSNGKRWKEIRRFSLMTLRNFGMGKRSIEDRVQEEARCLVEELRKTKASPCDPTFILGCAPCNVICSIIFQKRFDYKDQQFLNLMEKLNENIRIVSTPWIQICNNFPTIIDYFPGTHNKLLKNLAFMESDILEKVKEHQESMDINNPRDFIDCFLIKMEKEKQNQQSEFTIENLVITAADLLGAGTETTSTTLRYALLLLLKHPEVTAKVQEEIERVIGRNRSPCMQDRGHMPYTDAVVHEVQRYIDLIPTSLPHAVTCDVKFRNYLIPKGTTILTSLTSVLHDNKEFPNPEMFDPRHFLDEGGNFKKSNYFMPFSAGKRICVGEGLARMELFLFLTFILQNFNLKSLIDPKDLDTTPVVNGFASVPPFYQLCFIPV
Sequence of Cytochrome P450 3A4 (P08684 whole entry): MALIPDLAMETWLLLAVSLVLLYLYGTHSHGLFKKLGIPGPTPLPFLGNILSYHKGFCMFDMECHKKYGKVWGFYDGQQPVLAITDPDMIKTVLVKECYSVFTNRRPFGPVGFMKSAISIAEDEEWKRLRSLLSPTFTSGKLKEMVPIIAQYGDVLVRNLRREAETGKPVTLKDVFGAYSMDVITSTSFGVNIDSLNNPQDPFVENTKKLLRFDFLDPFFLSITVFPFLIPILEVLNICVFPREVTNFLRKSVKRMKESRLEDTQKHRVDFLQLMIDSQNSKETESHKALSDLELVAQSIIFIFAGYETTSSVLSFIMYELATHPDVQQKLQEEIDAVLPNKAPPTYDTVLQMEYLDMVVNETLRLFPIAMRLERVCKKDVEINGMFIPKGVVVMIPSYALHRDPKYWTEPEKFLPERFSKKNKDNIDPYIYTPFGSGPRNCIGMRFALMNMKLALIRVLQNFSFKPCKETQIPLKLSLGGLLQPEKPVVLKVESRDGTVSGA

The term EC50 denotes the concentration that produces a half-maximal response. Regarding `Cc1ccc(/C=C/C(=O)Nc2ccc(S(=O)(=O)Nc3cc(C)nc(C)n3)cc2)cc1`, the EC50 in series [1] was > 260 µM (inactive).
As usually defined, the IC50 is the midpoint of a concentration-inhibition curve. As to `Cc1nc(SCC(=O)N2CCN(c3ccccc3)CC2)c2oc3ccccc3c2n1`, the IC50 in the series on H9c2 was > 79 µM (inactive).
In general, AC50 refers to the midpoint of the concentration-response curve, whichever way the signal moves. Take `COc1ccc(-n2c(=O)c(-c3ccc(F)cc3)nc3cnc(OC)nc32)cc1`: at Cytochrome P450 3A4, the AC50 was 15.8 µM (inconclusive).
Take `CCN(CC)CCNC(=O)CCc1nnc(O)c2ccccc12`: in the series on H9c2, the IC50 was > 79 µM (inactive).
As to `CC(C)(C)c1ccc(C(=O)NC(=S)Nn2cnnc2)cc1`, the 50% effective concentration (EC50) in the series on H4 was 30.1 µM (active); in series [2] it was 69.9 µM (active); in series [3], > 120 µM (not active).
For the compound `CC(C)C(=O)Nc1ccc(NC(=O)c2cccnc2)cn1`, the AC50 on Cytochrome P450 2C19 (read-out: AC50) is 7.08 µM (inconclusive).
For `CCOC(=O)c1cnc(-c2ccccc2)nc1Oc1ccc(C)cc1`, in series [1], the EC50 was > 260 µM (inactive).
In the case of `CC(C)c1ccc(N2C(=O)[C@@H]3Cc4ccccc4CN3C2=O)cc1`, the EC50 in the series with H4 was > 120 µM (not active); in series [2], 45 µM (active); in series [3], > 120 µM (not active).
Consider `Cc1cc(SCC(=O)NCCN2C(=O)CSC2=O)nc2ccccc12`, for which the half-maximal effective concentration (EC50) (in the series with H4; in series [2]; in series [3]) was > 120 µM (not active) throughout.
Turning to `Cc1nn(CCOc2ccccc2)c(=O)n1-c1c(F)cccc1F`, the EC50 was 32.2 µM (active) in the series on H4, > 120 µM (not active) in series [2] and 15.3 µM (active) in series [3].
With `CC[N+](C)(CC)CCN1C(=O)c2ccccc2S1(=O)=O`, the concentration at half-maximal activity (AC50) entry on Cytochrome P450 2C19 was “inconclusive”.
With `COC(=O)c1ccccc1S(=O)(=O)N(Cc1ccco1)Cc1cc2cc(OC)ccc2nc1O`, in the series on H9c2, the IC50 was > 79 µM (inactive).
Regarding `COC(=O)c1cc(S(=O)(=O)N2CCN(c3ccc([N+](=O)[O-])cc3)CC2)c[nH]1`, the EC50 in series [1] was > 260 µM (inactive).
As for `COc1cc2[nH]c(C(=O)Nc3ccc(F)cc3)cc2c(OC)c1OC`, the values for the 50% effective concentration (EC50) (in the series with H4; in series [2]; in series [3]) were > 120 µM (not active), 9.27 µM (active) and > 120 µM (not active), respectively.
Regarding `CC(OC(=O)/C=C/c1ccc2ccccc2n1)C(=O)NCc1ccccc1` (stereo unspecified), the 50% effective concentration (EC50) in series [1] was 13.3 µM (active).
As for `COc1cc2c(cc1NC(=O)CSc1nccn1C)oc1ccccc12`, the EC50 is 27.6 µM (active) with H4, 7.9 µM (active) in series [2] and 13 µM (active) in series [3].
Consider `CC(C(=O)NC1CCCC1)N(C(=O)Cn1nnc(-c2ccc(F)cc2)n1)c1ccccc1F` (stereo unspecified), for which the IC50 with H9c2 was > 79 µM (inactive).
Same read-out and setting: the value for `CCn1ncc2c1C(=O)NC1c3ccccc3C(=O)N21` (stereo unspecified) was 32 µM (inactive).
For the compound `CCOc1ccc(-n2cc(C(=O)N3CCC(C)CC3)c3cc(OC)c(OC)cc3c2=O)cc1`, the EC50 in series [1] is > 260 µM (inactive).
Same read-out and setting: then `C=CCN1C(=O)NC(=O)/C(=C(/CC)Nc2ccc3c(c2)CCC3)C1=O`, with > 260 µM (inactive).
Still for that read-out and setting: the value for `O=C(CSc1nn(-c2ccc(F)cc2)c(=S)s1)N1CCN(C(=O)c2ccco2)CC1` was > 260 µM (inactive).
`COc1ccc(OC)c(C(=O)CSc2nnc(Cc3cccs3)n2CCc2ccccc2)c1`: the half-maximal activity concentration (AC50) at Cytochrome P450 1A2 is 7.08 µM (inconclusive); at Cytochrome P450 3A4 it was 39.8 µM (inconclusive).
On to `Cc1cc(NC(=O)NC(=O)c2ccccc2)no1`, for which the results for the concentration giving a half-maximal response (EC50) (in the series on H4; in series [2]; in series [3]) were 42.3 µM (inconclusive), 7.68 µM (active) and 3.66 µM (active), respectively.
For `COc1cccc(C2C(C(N)=O)=C(C)Nc3nc(-c4cccc(Cl)c4)nn32)c1` (stereo unspecified), in series [1], the EC50 is 71.9 µM (active).
Same read-out and setting: then `CC1(C)Cc2nc(NCCN3CCOCC3)c(C#N)cc2CO1`, with > 260 µM (inactive).
Take `CC1SCC(=NOCc2ccccc2)CS1` (stereo unspecified): the EC50 is 18.2 µM (active) in the series with H4, 17.7 µM (active) in series [2] and 14.5 µM (active) in series [3].
Consider `Cc1ccc(S(=O)(=O)N(C)C)cc1NC(=O)COC(=O)c1c(C)noc1C`, for which, in series [1], the EC50 is > 260 µM (inactive).
Consider `Cn1c(C(=O)NCc2cccs2)cc2c(=O)n(C)c3ccccc3c21`, for which the IC50 with H9c2 is > 79 µM (inactive).
Regarding `C[C@]12CC[C@H](O)C[C@@H]1CC[C@H]1[C@H]2CC[C@]2(C)[C@H](C(=O)CO)CC[C@@H]12`, on Cytochrome P450 3A4, the AC50 was 1 µM (inconclusive).
On to `COc1cccc(NC(=O)CN(C)C(=O)Cc2nnc(O)c3ccccc23)c1`, for which, in the series on H9c2, the IC50 was > 79 µM (inactive).
For the compound `CCCN1CCC(=NNc2ccc(C(=O)O)cc2)CC1`, the EC50 is 10.7 µM (active) in the series with H4, 30.4 µM (active) in series [2] and 7.27 µM (active) in series [3].
The corresponding values for `COc1ccc(-c2cn3c(C)c(C(=O)NC(C)(C)C)sc3n2)cc1` are > 120 µM (not active), 31.5 µM (active) and 1.06 µM (active).
On to `Cc1ccc(C(=O)NC2CCCN(c3ccc(C(F)(F)F)cn3)C2)cn1` (stereo unspecified), for which, in series [1], the EC50 was > 260 µM (inactive).
For `COc1ccc(-c2nc3cnc(N(C)C)nc3n(C[C@H]3CCCO3)c2=O)cc1`, the AC50 on Cytochrome P450 3A4 is 6.31 µM (inconclusive).
Turning to `O=C(/C=C/c1ccc(Cl)cc1)NCCN1CCOCC1`, the concentration at half-maximal activity (AC50) entry on Cytochrome P450 2C19 is listed as “inconclusive”.
Take `COC(=O)c1ccc(N(CC(=O)NC2CCCCC2)C(=O)CNC(=O)c2ccco2)cc1`: the EC50 in series [1] was > 260 µM (inactive).
As to `O=C(CCn1c(=S)[nH]c2ccccc2c1=O)NCCCN1CCOCC1`, at Cytochrome P450 3A4, the AC50 is 7.08 µM (inconclusive).
Turning to `CN(CC(=O)Nc1ccccc1Br)C(=O)Cn1[nH]c(=O)c2ccccc2c1=O`, the IC50 with H9c2 is > 79 µM (inactive).
Same read-out and setting: then `CC(OC(=O)CCc1nc(O)c2ccccc2n1)C(=O)Nc1ccc2c(c1)OCO2` (stereo unspecified), with 39.1 µM (inactive); and `CS(=O)(=O)Nc1ccc(-c2ccc3nccn3c2)cc1`, with > 79 µM (inactive); and `COc1ccc(C=CC(=O)c2ccc3cc(OC)c(OC)cc3c2)cc1OC`, with > 79 µM (inactive).
`O=C1[C@H]2[C@@H](c3ccc(C(F)(F)F)cc3)N[C@]3(CCCN(Cc4ccc(F)cc4)C3=O)[C@H]2C(=O)N1Cc1ccccc1`: the IC50 with H9c2 was > 79 µM (inactive).
Consider `COc1ccccc1NC(=O)COc1ccc(/C=N/NC(=O)c2cccnc2)cc1`, for which the concentration for half-maximal inhibition (IC50) in the series on H9c2 is 17.2 µM (active).
For the compound `COc1cc(/C=N/N2C(=O)c3ccccc3NC2(C)c2cccc([N+](=O)[O-])c2)cc(Br)c1O` (stereo unspecified), the EC50 in series [1] is 34.1 µM (active).
Take `O=C(Nc1ccccc1)N[C@H]1C[C@H](C(=O)O)Nc2cc(Cl)cc(Cl)c21`: the figures for the concentration at half-maximal activity (AC50) on Cytochrome P450 1A2, on Cytochrome P450 2C19 (read-out: AC50) and at Cytochrome P450 3A4 were 39.8 µM (inconclusive), 25.1 µM (inconclusive) and 25.1 µM (inconclusive), respectively.
For the compound `O=C1/C(=C\c2ccc(Br)o2)S/C(=N/c2ccccc2)N1c1ccccc1`, the AC50 on Cytochrome P450 2C19 (read-out: AC50) was 7.94 µM (inconclusive).
For `O=[N+]([O-])c1ccc(N/N=C2\CC3CC=CC23)cc1` (stereo unspecified), the values for the EC50 (with H4; in series [2]; in series [3]) were 24.3 µM (active), 13.2 µM (active) and 15.2 µM (active), respectively.
The corresponding values for `COC(=O)c1ccc(/N=C/c2c(C(F)(F)F)n[nH]c2O)cc1` are > 120 µM (not active), > 120 µM (not active) and > 120 µM (not active).
Regarding `O=S(=O)(N/N=C\c1cccn1-c1ccccc1)c1ccc2ccccc2c1`, on Cytochrome P450 2C19 (read-out: AC50), the half-maximal activity concentration (AC50) was 0.794 µM (inconclusive).
On to `O=[N+]([O-])c1cccc(/C=N/N2CCN(Cc3ccccc3)CC2)c1`, for which the 50% effective concentration (EC50) in the series on H4 is 20.2 µM (active); in series [2], 20.8 µM (active); in series [3] it was 14.7 µM (active).
On to `N[C@@H](CSS(=O)(=O)O)C(=O)O`, for which the values for the AC50 at Cytochrome P450 1A2 and on Cytochrome P450 2C19 (read-out: AC50) were 39.8 µM (inconclusive) and 7.94 µM (inconclusive), respectively.
